Assay results as given in patent publication US20250073292A1, “PELARGONIUM GRAVEOLENS EXTRACT FOR THE TREATMENT OF TRAUMATIC BRAIN INJURIES” (priority 2021, published 2025).

Assays:
acetyl choline esterase = acetyl choline esterase (Homo sapiens, UniProt P22303); conditions: WO 2013/168090 [10]; cited from earlier work
[1] = test system: mice subjected to closed head injury (CHI); experiment: Barnes maze (BM) acquisition, recall and exploration strategies after CHI; assay type: in vivo; conditions: 2 weeks after the trauma, 3 days after the last treatment; 125 mg/kg or 50 mg/kg (both doses), gavage, 9 treatments
Experimental: At 1 h after CHI, the NSS is evaluated.
• The BM test is based on the instinct of the mouse to hide when exposed to environmental disturbances and is used to test spatial learning and memory. The maze consists of an elevated circular platform with holes in the perimeter and a small dark hidden goal box. Bright light and aversive noise (85 dB) force the animals to escape from the open platform surface to find the hole under which the dark chamber (21×22×21 cm), “target goal box,” is located. Visual cues of different colors and shapes are placed around the room. The mouse was placed under a cylindrical black start chamber at the center of the maze. […] For the probe trial, the latency to reaching the escape box first are recorded. • The Barnes maze test was performed: • 1) Between days 14-17 (2 weeks) plus a recall test on days 18 and 25 after injury, for a total round of 6. • 2) Between days 54-57 (2 months) plus a recall test on days 58 and 65 after injury for a total round of 2. • 3) Between days 183-186 (6 months) plus a recall test on days 187 and 194 after injury for a total round of 2. • 4) Between days 277-280 (9 months) plus a recall test on days 281 and 288 after injury for a total round of 1. • The captured videos were analyzed with Ethovision XP10 software (Noldus, The Netherlands) for later evaluation of the strategies used to locate the target box. […]

acetyl choline esterase, sequence (P22303 32-614): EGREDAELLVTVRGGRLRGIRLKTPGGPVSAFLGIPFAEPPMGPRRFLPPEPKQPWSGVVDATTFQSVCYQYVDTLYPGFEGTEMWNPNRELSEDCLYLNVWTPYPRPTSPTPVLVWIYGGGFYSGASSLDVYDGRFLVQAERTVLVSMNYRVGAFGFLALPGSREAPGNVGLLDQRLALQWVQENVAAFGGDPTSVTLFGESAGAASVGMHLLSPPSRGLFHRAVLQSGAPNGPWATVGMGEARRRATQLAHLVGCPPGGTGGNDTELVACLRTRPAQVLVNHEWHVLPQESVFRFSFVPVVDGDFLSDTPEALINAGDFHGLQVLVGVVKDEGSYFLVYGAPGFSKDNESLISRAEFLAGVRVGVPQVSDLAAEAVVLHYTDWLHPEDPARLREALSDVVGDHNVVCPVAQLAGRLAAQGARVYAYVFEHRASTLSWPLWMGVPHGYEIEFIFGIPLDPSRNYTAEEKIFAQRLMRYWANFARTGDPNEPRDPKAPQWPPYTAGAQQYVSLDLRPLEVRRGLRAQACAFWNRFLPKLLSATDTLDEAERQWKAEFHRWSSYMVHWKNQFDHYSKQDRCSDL

Compound: CC(C)=CCC[C@H](C)CCO [(S) (−) citronellol]
- Activity of the enzyme acetyl choline esterase in vitro (acetyl choline esterase): inhibits

Compound: CC(C)=CCCC(C)CCO (centres unmarked) [Citronellol, citronellol]
- Barnes maze acquisition, learning curve [1]: A significant improvement in the learning curve
